Patent publication US9340510B2, “Tetrahydroisoquinoline derivatives, pharmaceutical compositions and uses thereof” (Boehringer Ingelheim International GmbH, priority 2014, dated 2016)

Each molecule was assayed against human ACC2 (Homo sapiens (Human), UniProt O00763) (assay: ACC2 assay: spectrophotometric 384 well assay (coupled lactate dehydrogenase/pyruvate kinase)). Conditions: hACC2 construct lacking the 128 N-terminal amino acids, 25° C., 340 nm.
human ACC2, sequence (O00763 129-2458): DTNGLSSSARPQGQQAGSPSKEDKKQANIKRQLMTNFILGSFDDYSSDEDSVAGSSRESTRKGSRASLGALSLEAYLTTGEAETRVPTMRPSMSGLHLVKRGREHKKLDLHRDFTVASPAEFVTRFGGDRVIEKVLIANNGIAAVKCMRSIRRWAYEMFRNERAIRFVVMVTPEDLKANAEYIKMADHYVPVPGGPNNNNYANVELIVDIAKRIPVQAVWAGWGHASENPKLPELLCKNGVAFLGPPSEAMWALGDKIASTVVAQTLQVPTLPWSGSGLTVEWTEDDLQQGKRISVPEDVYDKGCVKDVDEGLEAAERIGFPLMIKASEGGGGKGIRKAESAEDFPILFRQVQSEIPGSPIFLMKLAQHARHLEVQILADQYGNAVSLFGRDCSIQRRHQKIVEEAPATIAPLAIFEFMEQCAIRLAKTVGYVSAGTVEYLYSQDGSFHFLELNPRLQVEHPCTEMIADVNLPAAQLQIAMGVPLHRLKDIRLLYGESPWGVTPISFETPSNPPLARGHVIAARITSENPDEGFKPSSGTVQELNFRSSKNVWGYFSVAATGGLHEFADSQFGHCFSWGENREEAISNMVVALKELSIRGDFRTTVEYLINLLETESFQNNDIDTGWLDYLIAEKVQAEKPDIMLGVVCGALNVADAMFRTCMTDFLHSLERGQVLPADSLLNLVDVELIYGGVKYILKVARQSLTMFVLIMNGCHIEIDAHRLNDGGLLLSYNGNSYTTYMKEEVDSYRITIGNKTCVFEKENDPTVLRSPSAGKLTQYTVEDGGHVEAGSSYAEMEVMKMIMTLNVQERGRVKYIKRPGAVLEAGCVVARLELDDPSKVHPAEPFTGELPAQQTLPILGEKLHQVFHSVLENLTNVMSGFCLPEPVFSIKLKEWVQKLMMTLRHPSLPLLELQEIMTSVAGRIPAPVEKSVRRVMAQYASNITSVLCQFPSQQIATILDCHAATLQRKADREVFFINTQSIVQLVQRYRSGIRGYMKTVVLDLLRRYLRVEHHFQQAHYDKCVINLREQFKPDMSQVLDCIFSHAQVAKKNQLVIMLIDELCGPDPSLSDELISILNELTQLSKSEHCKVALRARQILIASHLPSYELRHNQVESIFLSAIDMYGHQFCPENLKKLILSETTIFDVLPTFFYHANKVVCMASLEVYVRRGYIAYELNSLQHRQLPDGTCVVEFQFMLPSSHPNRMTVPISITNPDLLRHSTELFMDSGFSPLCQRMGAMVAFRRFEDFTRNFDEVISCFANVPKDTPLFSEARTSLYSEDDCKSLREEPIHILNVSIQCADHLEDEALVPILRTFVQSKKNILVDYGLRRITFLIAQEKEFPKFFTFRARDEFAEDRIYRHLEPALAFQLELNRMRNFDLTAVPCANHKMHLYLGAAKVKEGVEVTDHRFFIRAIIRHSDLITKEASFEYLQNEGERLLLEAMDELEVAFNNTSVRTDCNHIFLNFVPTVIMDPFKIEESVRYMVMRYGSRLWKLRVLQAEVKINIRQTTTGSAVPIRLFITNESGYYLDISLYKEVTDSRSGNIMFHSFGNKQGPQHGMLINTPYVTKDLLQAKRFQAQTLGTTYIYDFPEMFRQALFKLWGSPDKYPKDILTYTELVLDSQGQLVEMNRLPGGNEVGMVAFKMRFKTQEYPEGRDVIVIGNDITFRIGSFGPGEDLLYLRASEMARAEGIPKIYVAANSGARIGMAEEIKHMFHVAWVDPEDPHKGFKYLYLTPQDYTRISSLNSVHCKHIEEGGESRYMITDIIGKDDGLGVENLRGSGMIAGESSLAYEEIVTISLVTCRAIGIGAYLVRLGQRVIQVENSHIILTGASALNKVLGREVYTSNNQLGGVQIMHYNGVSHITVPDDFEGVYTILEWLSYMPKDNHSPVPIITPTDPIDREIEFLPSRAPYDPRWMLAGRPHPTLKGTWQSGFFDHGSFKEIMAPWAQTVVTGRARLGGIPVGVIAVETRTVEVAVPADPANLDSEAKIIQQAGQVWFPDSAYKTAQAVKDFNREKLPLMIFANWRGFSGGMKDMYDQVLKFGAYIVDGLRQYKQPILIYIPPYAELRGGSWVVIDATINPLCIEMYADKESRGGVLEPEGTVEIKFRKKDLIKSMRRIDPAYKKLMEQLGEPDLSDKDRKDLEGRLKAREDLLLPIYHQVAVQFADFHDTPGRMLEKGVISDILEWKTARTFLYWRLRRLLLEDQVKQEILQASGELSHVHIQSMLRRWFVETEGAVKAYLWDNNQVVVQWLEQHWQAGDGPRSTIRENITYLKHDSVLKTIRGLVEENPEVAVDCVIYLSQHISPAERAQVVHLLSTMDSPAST
Type: biochemical
Protocol: Spectrophotometric 384 Well Assay
Malonyl CoA formation by acetyl CoA carboxylases is stoichiometrically linked to the consumption of ATP. ACC2 activity is measured in a […] kinetic method measuring ADP generated during the ACC reaction using a coupled lactate dehydrogenase/pyruvate kinase reaction.
For biological testing, a human ACC2 construct which lacks the 128 amino acids at the N-terminus for increased solubility (nt 385-6966 in Genbank entry AJ575592) is cloned. The protein is then expressed in insect cells using a baculoviral expression system. Protein purification is performed by anion exchange.
All compounds are dissolved in dimethyl sulfoxide (DMSO) to a concentration of 10 mM.
Assay reactions are then carried out in 384-well plates, with hACC2 in an appropriate dilution and at final assay concentrations (f.c.) of 100 mM Tris (pH 7.5), 10 mM trisodium citrate, 25 mM KHCO3, 10 mM MgCl2, 0.5 mg/ml BSA, 3.75 mM reduced L-glutathione, 15 U/ml lactate dehydrogenase, 0.5 mM phosphoenolpyruvate, 15 U/ml pyruvate kinase, compounds at different concentrations at final DMSO concentrations of 1%.
The enzymatic reaction is then started by addition of a mixture of NADH, acetyl Coenzyme A (both […].) and ATP (500 uM f.c.). The decrease of the optical density (slope S) is then determined at 25° C. at a wavelength of 340 nm over 15 minutes in a spectrophotometric reader.
Each assay microtiter plate contains wells with vehicle instead of compound as controls for the non-inhibited enzyme (100% CTL; ‘HIGH’) and wells without acetyl-CoA as controls for non-specific NADH degradation (0% CTL; ‘LOW’).
The slope S is used for calculation of % CTL=(S(compound)−S(‘LOW’))/(S(‘HIGH’)−S(‘LOW’))*100. Compounds will give values between 100% CTL (no inhibition) and 0% CTL (complete inhibition).
For IC50 value determination, the sample slope in the presence of the test compound after subtraction of the low controls (S(compound)−S(‘LOW’)) are used.
An IC50 value is derived from the compound slopes at different dosages after subtraction of the low controls (S(compound)-S(‘LOW’)) by non-linear regression curve fitting (equation y=(A+((B−A)/(1+((C/x)^D))))).
`CC(=O)Nc1nc(C)c(C(=O)N[C@@H](C)c2ccc(CN3CCc4cc(OCC5CC5)ccc4C3)cc2)s1` [Example 2.032] showed an IC50 of 34 nM.
With `CCC(=O)Nc1nc(C)c(C(=O)N[C@@H](C)c2ccc(CN3CCc4cc(OCC5CC5)ccc4C3)cc2)s1` [Example 2.033] the IC50 was 39 nM.
With `C[C@H](NC(=O)CO)c1ccc(CN2Cc3ccc(OCC4CC4(F)F)cc3C(F)C2)cc1` (some centres unmarked) [Example 2.034] the IC50 was 55 nM.
`CC(=O)Nc1nc(C)c(C(=O)N[C@@H](C)c2ccc(CN3Cc4ccc(OCC5CC5(F)F)cc4C(O)C3)cc2)s1` (some centres unmarked) [Example 2.035] showed an IC50 of 259 nM.
`C[C@H](NC(=O)C1CC(F)C1)c1ccc(CN2Cc3ccc(OCC4CC4(F)F)cc3C(O)C2)cc1` (some centres unmarked) [Example 2.036] was tested, and the IC50 was 408 nM.
Work on `C[C@H](NC(=O)CC#N)c1ccc(CN2Cc3ccc(OCC4CC4(F)F)cc3C(O)C2)cc1` (some centres unmarked) [Example 2.037] yielded an IC50 of 806 nM.
For `C[C@H](NC(=O)c1cncnc1)c1ccc(CN2CC(=O)c3cc(OCC4CC4(F)F)ccc3C2)cc1` (some centres unmarked) [Example 2.038], the IC50 was 819 nM.
With `C[C@H](NC(=O)CO)c1ccc(CN2CC(=O)c3cc(OCC4CC4(F)F)ccc3C2)cc1` (some centres unmarked) [Example 2.039] the IC50 was 565 nM.
`C[C@H](NC(=O)CO)c1ccc(CN2CC(=O)c3cc(OCC4CC4)ccc3C2)cc1` [Example 2.041] gave an IC50 of 600 nM.
For `CC(O)C(=O)N[C@@H](C)c1ccc(CN2CC(=O)c3cc(OCC4CC4)ccc3C2)cc1` (some centres unmarked) [Example 2.042], the IC50 was 624 nM.
For `C[C@H](NC(=O)CC#N)c1ccc(CN2CC(=O)c3cc(OCC4CC4)ccc3C2)cc1` [Example 2.043], the IC50 was 428 nM.
For `C[C@H](NC(=O)Cc1cncnc1)c1ccc(CN2CC(=O)c3cc(OCC4CC4)ccc3C2)cc1` [Example 2.044], the IC50 was 446 nM.
`C[C@H](NC(=O)CC#N)c1ccc(CN2CCc3cc(OCC4CC4(F)F)ccc3C2)cc1` (stereo partly drawn) [Example 3.001, 2-Cyano-N—((S)-1-{4-[6-(2,2-difluoro-cyclopropylmethoxy)-3,4-dihydro-1H-isoquinolin-2-ylmethyl]-phenyl}-ethyl)-acetamide] showed an IC50 of 35 nM.
For `C[C@H](NC(=O)C(C)(F)F)c1ccc(CN2CCc3cc(OCC4CC4(F)F)ccc3C2)cc1` (some centres unmarked) [Example 3.002], the IC50 was 29 nM.
`CC(C#N)C(=O)N[C@@H](C)c1ccc(CN2CCc3cc(OCC4CC4(F)F)ccc3C2)cc1` (some centres unmarked) [Example 3.003] showed an IC50 of 91 nM.
`C[C@H](NC(=O)Cc1cncnc1)c1ccc(CN2Cc3ccc(OCC4CC4(F)F)cc3C(F)C2)cc1` (some centres unmarked) [Example 3.03] showed an IC50 of 95 nM.
In the case of `C[C@H](NC(=O)c1cnn(C)c1)c1ccc(CN2CCc3cc(OCC4CC4(F)F)ccc3C2)cc1` (some centres unmarked) [Example 3.004], the IC50 is reported as 46 nM.
`C[C@H](NC(=O)C1(C(F)(F)F)CC1)c1ccc(CN2CCc3cc(OCC4CC4(F)F)ccc3C2)cc1` (some centres unmarked) [Example 3.005] showed an IC50 of 59 nM.
In the case of `C[C@H](NC(=O)C1CCC1)c1ccc(CN2CCc3cc(OCC4CC4(F)F)ccc3C2)cc1` (some centres unmarked) [Example 3.006], the IC50 is reported as 38 nM.
In the case of `C[C@H](NC(=O)C1CC(F)C1)c1ccc(CN2CCc3cc(OCC4CC4(F)F)ccc3C2)cc1` (some centres unmarked) [Example 3.007], the IC50 is reported as 50 nM.
Work on `C[C@H](NC(=O)c1ccns1)c1ccc(CN2CCc3cc(OCC4CC4(F)F)ccc3C2)cc1` (some centres unmarked) [Example 3.008] yielded an IC50 of 68 nM.
`C[C@H](NC(=O)c1cnco1)c1ccc(CN2CCc3cc(OCC4CC4(F)F)ccc3C2)cc1` (some centres unmarked) [Example 3.009] gave an IC50 of 59 nM.
In the case of `C[C@H](NC(=O)c1cn[nH]c1)c1ccc(CN2CCc3cc(OCC4CC4(F)F)ccc3C2)cc1` (some centres unmarked) [Example 3.010], the IC50 is reported as 25 nM.
`C[C@H](NC(=O)c1ccon1)c1ccc(CN2CCc3cc(OCC4CC4(F)F)ccc3C2)cc1` (some centres unmarked) [Example 3.011] showed an IC50 of 52 nM.
For `Cc1[nH]ncc1C(=O)N[C@@H](C)c1ccc(CN2CCc3cc(OCC4CC4(F)F)ccc3C2)cc1` (some centres unmarked) [Example 3.012], the IC50 was 122 nM.
Molecule `C[C@H](NC(=O)C1(C#N)CC1)c1ccc(CN2CCc3cc(OCC4CC4(F)F)ccc3C2)cc1` (some centres unmarked) [Example 3.013] has an IC50 of 40 nM.
Molecule `C[C@H](NC(=O)c1ccno1)c1ccc(CN2CCc3cc(OCC4CC4(F)F)ccc3C2)cc1` (some centres unmarked) [Example 3.014] has an IC50 of 103 nM.
Molecule `C[C@H](NC(=O)C1(C)CC1)c1ccc(CN2CCc3cc(OCC4CC4(F)F)ccc3C2)cc1` (some centres unmarked) [Example 3.015] has an IC50 of 24 nM.
`C[C@H](NC(=O)c1cnn(C)c1Cl)c1ccc(CN2CCc3cc(OCC4CC4(F)F)ccc3C2)cc1` (some centres unmarked) [Example 3.016] was tested, and the IC50 was 162 nM.
`CCC(=O)Nc1nc(C)c(C(=O)N[C@@H](C)c2ccc(CN3CCc4cc(OCC5CC5(F)F)ccc4C3)cc2)s1` (some centres unmarked) [Example 3.017] was tested, and the IC50 was 37 nM.
For `C[C@H](NC(=O)c1cnn(C)c1N)c1ccc(CN2CCc3cc(OCC4CC4(F)F)ccc3C2)cc1` (some centres unmarked) [Example 3.018], the IC50 was 208 nM.
`C[C@H](NC(=O)c1cncs1)c1ccc(CN2CCc3cc(OCC4CC4(F)F)ccc3C2)cc1` (some centres unmarked) [Example 3.019] showed an IC50 of 28 nM.
With `Cc1nocc1C(=O)N[C@@H](C)c1ccc(CN2CCc3cc(OCC4CC4(F)F)ccc3C2)cc1` (some centres unmarked) [Example 3.020] the IC50 was 33 nM.
Work on `C[C@H](NC(=O)C1CC(F)(F)C1)c1ccc(CN2CCc3cc(OCC4CC4(F)F)ccc3C2)cc1` (some centres unmarked) [Example 3.021] yielded an IC50 of 198 nM.
Molecule `C[C@H](NC(=O)[C@H]1C[C@H](F)C1)c1ccc(CN2CCc3cc(OCC4CC4(F)F)ccc3C2)cc1` (some centres unmarked) [Example 3.022] has an IC50 of 28 nM.
Work on `C[C@H](NC(=O)[C@H]1C[C@H](F)C1)c1ccc(CN2Cc3ccc(OCC4CC4)cc3C(F)C2)cc1` (some centres unmarked) [Example 3.023] yielded an IC50 of 45 nM.
Work on `CCC(=O)N[C@@H](C)c1ccc(CN2Cc3ccc(OCC4CC4)cc3C(F)C2)cc1` (some centres unmarked) [Example 3.024] yielded an IC50 of 22 nM.
`CCC(=O)Nc1nc(C)c(C(=O)N[C@@H](C)c2ccc(CN3Cc4ccc(OCC5CC5)cc4C(F)C3)cc2)s1` (some centres unmarked) [Example 3.025] showed an IC50 of 26 nM.
`C[C@H](NC(=O)CC#N)c1ccc(CN2Cc3ccc(OCC4CC4)cc3C(F)C2)cc1` (some centres unmarked) [Example 3.026] showed an IC50 of 49 nM.
For `CCC(=O)N[C@@H](C)c1ccc(CN2Cc3ccc(OCC4CC4(F)F)cc3C(F)C2)cc1` (some centres unmarked) [Example 3.027], the IC50 was 38 nM.
`C[C@H](NC(=O)C1(C#N)CC1)c1ccc(CN2Cc3ccc(OCC4CC4(F)F)cc3C(F)C2)cc1` (some centres unmarked) [Example 3.028] was tested, and the IC50 was 46 nM.
`C[C@H](NC(=O)CC#N)c1ccc(CN2Cc3ccc(OCC4CC4(F)F)cc3C(F)C2)cc1` (some centres unmarked) [Example 3.029] gave an IC50 of 45 nM.
Work on `C[C@H](NC(=O)[C@H]1C[C@H](F)C1)c1ccc(CN2Cc3ccc(OCC4CC4(F)F)cc3C(F)C2)cc1` (some centres unmarked) [Example 3.031] yielded an IC50 of 77 nM.
`CC(=O)Nc1nc(C)c(C(=O)N[C@@H](C)c2ccc(CN3Cc4ccc(OCC5CC5(F)F)cc4C(F)C3)cc2)s1` (some centres unmarked) [Example 3.032] gave an IC50 of 58 nM.
In the case of `C[C@H](NC(=O)c1ncc[nH]1)c1ccc(CN2Cc3ccc(OCC4CC4)cc3C(F)C2)cc1` (some centres unmarked) [Example 3.033], the IC50 is reported as 358 nM.
Molecule `C[C@H](NC(=O)CC(N)=O)c1ccc(CN2Cc3ccc(OCC4CC4)cc3C(F)C2)cc1` (some centres unmarked) [Example 3.034] has an IC50 of 115 nM.
Molecule `C[C@H](NC(=O)C1CCC(=O)N1)c1ccc(CN2Cc3ccc(OCC4CC4)cc3C(F)C2)cc1` (some centres unmarked) [Example 3.035] has an IC50 of 143 nM.
With `CC(=O)Nc1nc(C)c(C(=O)N[C@@H](C)c2ccc(CN3Cc4ccc(OCC5CC5)cc4C(F)C3)cc2)o1` (some centres unmarked) [Example 3.036] the IC50 was 518 nM.
Molecule `C[C@H](NC(=O)Cc1cnccn1)c1ccc(CN2Cc3ccc(OCC4CC4)cc3C(F)C2)cc1` (some centres unmarked) [Example 3.037] has an IC50 of 60 nM.
With `C[C@H](NC(=O)C1CC1)c1ccc(CN2Cc3ccc(OCC4CC4)cc3C(O)C2)cc1` (some centres unmarked) [Example 3.038] the IC50 was 198 nM.
For `CCC(=O)N[C@@H](C)c1ccc(CN2Cc3ccc(OCC4CC4)cc3C(O)C2)cc1` (some centres unmarked) [Example 3.039], the IC50 was 136 nM.
`CCC(=O)Nc1nc(C)c(C(=O)N[C@@H](C)c2ccc(CN3Cc4ccc(OCC5CC5)cc4C(O)C3)cc2)s1` (some centres unmarked) [Example 3.040] gave an IC50 of 189 nM.
In the case of `C[C@H](NC(=O)C1CCC1)c1ccc(CN2Cc3ccc(OCC4CC4)cc3C(O)C2)cc1` (some centres unmarked) [Example 3.041], the IC50 is reported as 490 nM.
Molecule `C[C@H](NC(=O)C1CCC1)c1ccc(CN2Cc3ccc(OCC4CC4)cc3C(F)C2)cc1` (some centres unmarked) [Example 3.042] has an IC50 of 72 nM.
`C[C@H](NC(=O)C1(C#N)CC1)c1ccc(CN2Cc3ccc(OCC4CC4)cc3C(O)C2)cc1` (some centres unmarked) [Example 3.043] gave an IC50 of 354 nM.
For `C[C@H](NC(=O)C1(C#N)CC1)c1ccc(CN2Cc3ccc(OCC4CC4)cc3C(F)C2)cc1` (some centres unmarked) [Example 3.044], the IC50 was 62 nM.
`CC(=O)Nc1nc(C)c(C(=O)N[C@@H](C)c2ccc(CN3Cc4ccc(OCC5CC5)cc4C(O)C3)cc2)s1` (some centres unmarked) [Example 3.045] showed an IC50 of 231 nM.
`CC(=O)Nc1nc(C)c(C(=O)N[C@@H](C)c2ccc(CN3Cc4ccc(OCC5CC5)cc4C(F)C3)cc2)s1` (some centres unmarked) [Example 3.046] gave an IC50 of 56 nM.
Work on `C[C@H](NC(=O)c1cncs1)c1ccc(CN2Cc3ccc(OCC4CC4)cc3C(O)C2)cc1` (some centres unmarked) [Example 3.047] yielded an IC50 of 308 nM.
